{"source": "paper PMC8352664", "about": "(The Journal of Biological Chemistry, 2021)", "test_system": "CD8^+ T cells in PBMCs from convalescent COVID-19 patients", "format": "cell-based, human"}
{"sequence": "YLQPSTFLL [S^269–277R273S]", "values": [{"measurement": "HLA-A2^S269–277+CD8+ T cell cross-reactivity between WT S^269–277 and variant peptide", "value": "no HLA-A2^S269–277+CD8^+ T cell cross-reactivity"}]}
